# Test results published in US20240165132A1, “METHODS AND MATERIALS FOR TREATING CANCER” (Mayo Foundation for Medical Education and Research, priority 2021, published 2024).
# Read-outs that look alike come from different tables or passages of the source.
# Assays:
# [1] = test system: GBM12 parental line and TMZ-resistant subclones; test: TMZ re-challenge plus Bcl-XL inhibitor, CellTiter-Glo; type: cell-based, human; conditions: 10 μM TMZ plus 1 μM inhibitor, 5 days
# GBM12 = test: Senolytic drug screen, CellTiter-Glo viability; type: cell-based, human; conditions: GBM12 (P3); for IC50: Homo sapiens, read-out: IC50 of A1331852
# Experimental: (§1) Human patient-derived glioblastoma lines were utilized and were cultured according to established protocols. Tumor lines maintained as patient-derived xenografts (PDX) are from the National PDX resource. Such lines are designated as “GBM-6, 10, 12, 39, 76, 123, 164, or 196”. Implantation of patient-derived glioblastoma cells, serial passage of flank tumor xenografts, and short-term explant culturing were done as described elsewhere, with some lines maintained in serum-containing media, and some lines maintained in serum free media as noted in Table 2 (see, for example, Carlson et al., Current protocols in pharmacology. Chapter 14(14):Unit 14.16 (2011)). Some cell lines were maintained from time of harvest as in vitro cell lines rather than PDX lines, as described elsewhere (see, for example, Himes et al., Neuro-oncology. 22(7):967-978 (2020)). Such lines are designated as dBT114, dBT116, dBT120, dBT132 (dBT=differentiated brain tumor). Culture conditions were unchanged after induction of senescence.
# (§2) After plating, cells were maintained in 10 cm culture dishes for 2-4 days until >50% confluent. Cells were then treated with TMZ for 7 days or radiation (cesium gamma radiator) with varying doses. Most experiments were performed after use of 15 Gy to induce senescence. Radiation and TMZ each caused death of a variable percentage of cells in the ensuing days. “Senescent” tumor cells used for experiments are designated by those that survive following TMZ or radiation treatments. Except for radiation doses of 4 Gy or below, no visible proliferation occurred within 1 month after treatment with TMZ or radiation. For initial screening of senolytic drugs, cells were maintained for at least 20 days after radiation or TMZ prior to re-plating cells into black walled optical 96-well plates (5000 cells/well) for doing drug treatment.
# (§3) Human glioblastoma cells were exposed to 10, 15 or 20 Gy radiation as indicated above. All GBM lines tested (Table 2) yielded a subpopulation of surviving non-proliferative cells used for subsequent experiments, with the exception of GM43 which yielded insufficient surviving cells for senescence experiments. All senolytic drugs used in this study were dissolved in DMSO (Table 1). Control (0 nM) cells were treated with the same dose of DMSO as cells with the highest drug concentration. Unless specified otherwise, cells were maintained in drug-containing media for four days prior to evaluation of cell viability using ATP lite, CellTiter-Glo assay according to company protocol (Cat #G7570). For all experiments, luminescence values are normalized to the 0 nM control for that cell line and radiation dose. All dose response graphs are depicted standard error of the mean (SEM) of 3 technical replicates at each concentration. Representative data are shown for experiments performed in independent replicates.
# (§4) Multiple linear regressions were used to assess the relationship of drug dose and treatment (e.g. control, radiation, TMZ) with cell inhibition within each cell line. For these models, cell inhibition was the outcome and drug dose, treatment, and the drug dose by treatment interaction were the independent predictors. If the drug dose by treatment interaction was significant (p<0.05), pairwise comparisons were made at each drug dose between treatment groups using a two-sample t-test. Statistical analysis was performed in Microsoft Excel. IC50 was calculated by nonlinear regression (Curve fit) of dose-response inhibition curve by using GraphPad prism 8.4.2.
# dBT120 = test: Senolytic drug screen, CellTiter-Glo viability; type: cell-based, human; conditions: dBT120 (P10); for IC50: Homo sapiens, read-out: IC50 of A1331852
# Experimental: as §1, §2, §3, §4
# dBT114 = test: Senolytic drug screen, CellTiter-Glo viability; type: cell-based, human; conditions: dBT114 (P11); for IC50: Homo sapiens, read-out: IC50 of A1331852
# Experimental: as §1, §2, §3, §4
# dBT116 = test: Senolytic drug screen, CellTiter-Glo viability; type: cell-based, human; conditions: dBT116 (P8); for IC50: Homo sapiens, read-out: IC50 of A1331852
# Experimental: as §1, §2, §3, §4
# GBM6 = test: Senolytic drug screen, CellTiter-Glo viability; type: cell-based, human; conditions: GBM6 (P4); for IC50: Homo sapiens, read-out: IC50 of A1331852
# Experimental: as §1, §2, §3, §4
# GBM10 = test: Senolytic drug screen, CellTiter-Glo viability; type: cell-based, human; conditions: GBM10 (P2); for IC50: Homo sapiens, read-out: IC50 of A1331852
# Experimental: as §1, §2, §3, §4
# GBM123 = test: Senolytic drug screen, CellTiter-Glo viability; type: cell-based, human; conditions: GBM123 (P3); for IC50: Homo sapiens, read-out: IC50 of A1331852
# Experimental: as §1, §2, §3, §4
# GBM164 = test: Senolytic drug screen, CellTiter-Glo viability; type: cell-based, human; conditions: GBM164 (P2); for IC50: Homo sapiens, read-out: IC50 of A1331852
# Experimental: as §1, §2, §3, §4
# GBM39 = test: Senolytic drug screen, CellTiter-Glo viability; type: cell-based, human; conditions: for IC50: Homo sapiens
# Experimental: as §1, §2, §3, §4
# [2] = test system: radiated orthotopic glioma; test: Convection-enhanced delivery into radiated orthotopic tumors, tumor bioluminescence; type: in vivo, mice; conditions: CED 1 month after radiation, read 1 further month thereafter; vehicle 39.7%
# Experimental: FIGS. 18A-18C show in vivo senescent glioblastoma tumor ablation by convection enhanced drug delivery.
# Senolytic drugs were screened using human glioblastoma cells radiated with 10-20 Gy, or 100 uM TMZ and then maintained for 3 to 4 weeks. Senescence was confirmed via beta-galactosidase staining, elevated p21 transcript and loss of nuclear […] immunohistochemistry (FIGS. 16A-16B). IC50 was compared in radiated (senescent) vs non-radiated cells using the cell-titer glow assay. 1 month after in vivo radiation of intracranial tumors, convection-enhanced delivery (CED) of drug was performed. Any change in tumor bioluminescence was evaluated 1 month thereafter. CED infusion efficacy was confirmed via MRI.
smiles,measurement,setting,value
Cc1c(-c2ccc(N3CCc4cccc(C(=O)Nc5nc6ccccc6s5)c4C3)nc2C(=O)O)cnn1CC12CC3CC(CC(C3)C1)C2 [A1331852],Ablation of TMZ-resistant subclones,[1]; 3 TMZ-resistant subclones (R),induced complete ablation
same,Ablation of parental TMZ-sensitive cells,[1]; parental cells (S),increased TMA-induced ablation
same,Relative sensitivity (RS),GBM12; control vs 15Gy,11.31 ± 8.282
same,IC50,GBM12; 15Gy radiated,22.9 ± 7.61 nM
same,IC50,GBM12; non-radiated control,390 ± 70 nM
same,IC50,dBT120; 15Gy radiated,458 nM
same,IC50,dBT120; non-radiated control,5180 nM
same,Relative sensitivity (RS),dBT120; control vs 15Gy,11.31
same,IC50,dBT114; 15Gy radiated,338 ± 72 nM
same,IC50,dBT114; non-radiated control,6320 ± 1090 nM
same,Relative sensitivity (RS),dBT114; control vs 15Gy,20.28 ± 7.55
same,IC50,dBT116; 20Gy radiated,63.5 nM
same,IC50,dBT116; non-radiated control,290 nM
same,Relative sensitivity (RS),dBT116; control vs 20Gy,4.566
same,Relative sensitivity (RS),GBM6; control vs 10Gy,26.58
same,Relative sensitivity (RS),GBM6; control vs 15Gy,26.58
same,Relative sensitivity (RS),GBM6; control vs 20Gy,16.72
same,IC50,GBM6; 10Gy radiated,532 nM
same,IC50,GBM6; 15Gy radiated,532 nM
same,IC50,GBM6; 20Gy radiated,845 nM
same,IC50,GBM6; non-radiated control,14100 nM
same,Relative sensitivity (RS),GBM10; control vs 15Gy,16.19
same,IC50,GBM10; 15Gy radiated,2470 nM
same,IC50,GBM10; non-radiated control,40000 nM
same,Relative sensitivity (RS),GBM123; control vs 15Gy,2.457
same,IC50,GBM123; 15Gy radiated,9360 nM
same,IC50,GBM123; non-radiated control,23000 nM
same,Relative sensitivity (RS),GBM164; control vs 15Gy,3.824
same,IC50,GBM164; 15Gy radiated,77.7 nM
same,IC50,GBM164; non-radiated control,297 nM
same,Relative sensitivity (RS),"GBM39; GBM39 (P2-3), control vs 15Gy",513.8149 ± 711.64
same,Relative sensitivity (RS),"GBM39; GBM39 (P2-3), control vs TMZ",41.02 ± 2.182
same,Relative sensitivity (RS),"GBM39; GBM39 (P3), control vs 20Gy",16.66 ± 11.88
same,IC50 in radiated vs non-radiated cells,"GBM39; GBM39, 15 Gy vs 0 Gy, 21 days after radiation, 4 days drug, p<0.0001",lower IC50 in radiated cells
same,IC50,"GBM39; GBM39, read-out: IC50 of A1331852, 15Gy, GBM39 (P2-3), 15Gy radiated",80.5 ± 93 nM
same,IC50,"GBM39; GBM39, read-out: IC50 of A1331852, 20Gy, GBM39 (P3), 20Gy radiated",71 ± 10.3 nM
same,IC50,"GBM39; GBM39, read-out: IC50 of A1331852, Control, GBM39 (P2-3), control of 15Gy series",108000 ± 152000 nM
same,IC50,"GBM39; GBM39, read-out: IC50 of A1331852, Control, GBM39 (P2-3), control of TMZ series",1720 ± 2180 nM
same,IC50,"GBM39; GBM39, read-out: IC50 of A1331852, Control, GBM39 (P3), control of 20Gy series",1300 ± 1010 nM
same,Decrease of tumor bioluminescence,[2],93.1%
